Eight compounds from EP0286418A1, “Anti-retroviral agents and delivery systems for the same” (priority 1987, dated 1988) can be followed below.

Data set [1] in a line: volume of encapsulation in liposomes. Conditions: freeze-thawed multilamellar EPC/PS/cholesterol liposomes; 8 mM solute. Type of data set: physicochemical. The method, then:
2ʹ,3ʹ-dideoxyguanosine 5ʹ-triphosphate (ddGTP), 2ʹ,3ʹ-dideoxyadenosine 5ʹ-triphosphate (ddATP), 2ʹ,3ʹ-dideoxythymidine 5ʹ-triphosphate (ddTTP), 2ʹ,3ʹ-dideoxycytidine 5ʹ-diphosphate (ddCDP), and 2ʹ,3ʹ-dideoxy cytidine 5ʹ-monophosphate (ddCMP) were obtained from Pharmacia (Piscataway, N.J., USA). Liposomes containing each of these agents were prepared using 56 mg EPC, 29 mg PS, 33 mg cholesterol, and 0.125 micro Ci ¹⁴C-cholesteryl oleate. Solutions for encapsulation were 8 mM nucleoside or nucleotide in phosphate-buffered saline pH 7. Liposomes were prepared essentially as described in Example 2, by drying lipid onto the walls of a glass vial, hydrating the lipid with a portion of the solution to be encapsulated, vortex-mixing, and freeze-thawing 5 times with liquid nitrogen. However, the lipid was hydrated in 0.8 ml, rather than 1.0 ml, and the extrusion step was eliminated. […] The preparation was washed by centrifugation 3 times to remove unencapsulated solute. The volume encapsulated was determined by extraction, using equal volumes of chloroform:methanol (65:25) and phosphate buffered saline. The nucleoside and nucleotide solutes partitioned largely into the aqueous phase, whereas lipid was found in the organic phase and near the interface after centrifugation. The amount of solute encapsulated was determined by standard ultraviolet spectroscopy, and the lipid was measured by counting the ¹⁴C label in scintillation fluid.

Data set [2] can be described thus: solute release from liposomes at 4°C. The class given is physicochemical. The following applies: from liposomes at 4°C in 2 days. The method, then:
Rates of solute release were determined by adding 145 microliters of phosphate buffered saline to 25 microliters of liposomes and centrifuging in an Airfuge (Beckman) at approximately 100,000G for 10 minutes. The liposome pellets were then counted for ¹⁴C lipid, and 100 microliters of each supernatant was diluted 5-fold with phosphate buffered saline for ultraviolet spectroscopy. […] In each case, the triphosphates are released less, and the less phosphorylated forms are released to a greater extent.

A short description of the next data set: in vitro. Type of data set: in vitro ADME. The following applies: dmem-gg-fcs. The method, then: When the same incubations were done in the absence of monocytes, the results were essentially identical.
Studies were conducted under conditions mimicking those of anti-viral tests. ddCMP: dideoxycytidine monophosphate. Data points represent integrals under HPLC peaks from gradient elution on a VYDAC nucleotide column.

For the next data set, the system named is adherent human monocytes. Nature of the data set: uptake of dideoxynucleotides. The following applies: 37°C, drug 1 uM. The class given is cell-based. The method, then: Uptake of ₃H-deoxyctidine triphosphate (³H-dCTP) was used as an indicator of the uptake of vesicle contents by cells. Uptake experiments were done by plating 5 × 10⁶ monocytes in each well of a 6-well microtiter plate (Costar) and adding reagents one or two days later. Incubations were done in DMEM-GG-FCS at 37°C. The rate of increase of dCTP content in the cells over a 9-hour period (Table 7) averaged 0.29 pmole/million cells/hr with liposomes containing 4 mM EPC. Other experiments established that ddCTP and ddCMP are not readily taken up by the cells (Table 9).

The next data set has as its system monocytes. Nature of the data set: superoxide generation by monocytes. The class given is cell-based, Human. Conditions: PMA treatment (positive control), one value per test series. On the procedure: Human peripheral blood mononuclear cells were obtained by standard procedures employing continuous flow cell separation (leukapheresis), such as described in Wahl, et al., Cellular Immunol. 85:373-383 (1984). The preparation was diluted in phosphate-buffered saline and layered onto gradients of Ficoll-Paque (Pharmacia-PL Biochemicals, Piscataway, N.J., USA). After centrifugation, mononuclear cells were pipetted from the interface, washed, and suspended in DMEM-GG-FCS. They were then fractionated by countercurrent centrifugal elutriation. The procedure comprises the Beckman elutriation system including a J-21 Beckman Centrifuge, a JE-6 elutriator rotor, a stroboscope, and a Masterflex pump and pumphead. The cells were loaded into the rotor and fractionated by elution at increasing flow rates. Fractions 7 and 8, highly enriched for monocytes, were pooled for use.

“And” between values parts separate entries of the source, which are not always exact repeats. Equal values may be shown once.

Regarding `Cc1cn([C@H]2CC[C@@H](CO)O2)c(=O)[nH]c1=O` [ddT, dideoxythymidine, reference compound], the “Volume of Encapsulation” value in data set [1] worked out at 1.29 microliters/micromole EPC. Besides, the “Percent Release” value in data set [2] came to 45.1%.

As to `Nc1nc2c(ncn2[C@H]2CC[C@@H](COP(=O)(O)OP(=O)(O)OP(=O)(O)O)O2)c(=O)[nH]1` [ddGTP, 2ʹ,3ʹ-dideoxyguanosine 5ʹ-triphosphate], the “Volume of Encapsulation” value in data set [1] is on record as 2.74 microliters/micromole EPC. For the same compound, in data set [2], the “Percent Release” value is 0.3%.

On to `Nc1ccn([C@H]2CC[C@@H](COP(=O)(O)OP(=O)(O)O)O2)c(=O)n1` [ddCDP, 2ʹ,3ʹ-dideoxycytidine 5ʹ-diphosphate], for which, in data set [1], the “Volume of Encapsulation” value amounted to 1.26 microliters/micromole EPC. In data set [2], the “Percent Release” value was 6.2%.

In the case of `Nc1ccn([C@H]2CC[C@@H](COP(=O)(O)O)O2)c(=O)n1` [ddCMP, 2ʹ,3ʹ-dideoxycytidine 5ʹ-monophosphate], in data set [1], the “Volume of Encapsulation” value worked out at 0.76 microliters/micromole EPC. Also, the metabolised at 72 h in the data set “in vitro” worked out at 93%. For the same compound, the “Percent Release” value in data set [2] worked out at 6.9%. The “pmole drug/1 million cells (mean)” value is 0.07 pmole drug/1 million cells in the data set on adherent human monocytes (0. h); 0.18 pmole drug/1 million cells with adherent human monocytes (0.33 h); 0.22 pmole drug/1 million cells in the data set with adherent human monocytes (1.00 h); 0.08 pmole drug/1 million cells in the data set with adherent human monocytes (3.00 h); 0.20 pmole drug/1 million cells with adherent human monocytes (6.00 h).

As for `Cc1cn([C@H]2CC[C@@H](COP(=O)(O)OP(=O)(O)OP(=O)(O)O)O2)c(=O)[nH]c1=O` [ddTTP, 2ʹ,3ʹ-dideoxythymidine 5ʹ-triphosphate], in data set [1], the “Volume of Encapsulation” value was 1.61 microliters/micromole EPC. The “Percent Release” value in data set [2] is recorded as 0.04%.

On to `CCCCCCCCCCCCCC(=O)O[C@@H]1[C@@H](C)[C@@]2(O)[C@@H](C=C(CO)C[C@]3(O)C(=O)C(C)=C[C@@H]23)[C@@H]2C(C)(C)[C@]12OC(C)=O` [PMA, phorbol myristyl acetate, reference compound], for which the Superoxide in the data set with monocytes was 3.23 (.09) nmoles/well and 3.30 (.12) nmoles/well and 3.26 (.05) nmoles/well and 3.46 (.12) nmoles/well.

On to `Nc1ncnc2c1ncn2[C@H]1CC[C@@H](COP(=O)(O)OP(=O)(O)OP(=O)(O)O)O1` [ddATP, 2ʹ,3ʹ-dideoxyadenosine 5ʹ-triphosphate], for which the “Volume of Encapsulation” value in data set [1] was 1.30 microliters/micromole EPC. Moreover, in data set [2], the “Percent Release” value turned out to be 0.9%.

On to `Nc1ccn([C@H]2CC[C@@H](CO)O2)c(=O)n1` [ddC, dideoxycytidine, reference compound], for which the “pmole drug/1 million cells (mean)” value was 0.05 pmole drug/1 million cells with adherent human monocytes (0. h); 0.01 pmole drug/1 million cells in the data set with adherent human monocytes (0.33 h); 0.19 pmole drug/1 million cells with adherent human monocytes (1.00 h); 0.43 pmole drug/1 million cells in the data set on adherent human monocytes (3.00 h); 1.30 pmole drug/1 million cells with adherent human monocytes (6.00 h); 1.90 pmole drug/1 million cells in the data set on adherent human monocytes (9.00 h). Moreover, the “pmole drug/1 million cells (mean)” value in the data set with adherent human monocytes (20.00 h) was 0.81 pmole drug/1 million cells.
